Test results from patent US20120238554A1, “SALTS OF POTASSIUM ATP CHANNEL OPENERS AND USES THEREOF” (priority 2007, published 2012).
Where two headings read alike, the source gives them in different places.

How the values were obtained:
[1] = Polymorph screening crystallizations and characterization of forms (XRPD, DSC, TGA); type: physicochemical
Experimental: DSC analysis were conducted with a Mettler 822 DSC, by measuring the amount of energy released by a sample, as the sample was heated from 30° C. to between 300-500° C. at a rate of 10° C./min. Typical applications of DSC analysis include determination of melting point temperature and the heat of melting; measurement of the glass transition temperature; curing and crystallization studies; and identification of phase transformations.
TGA measurements were conducted with a Mettler 851 SDTA/TGA, by measuring weight loss as a function of increasing temperature, as the samples were heated from 30° C. to 230° C. at a rate of 10° C./min. The TCA can be used to analyze desorption and decomposition behavior, characterize oxidation behavior, set burnout or conditioning parameters (temperature/ramp rate/time), and determine chemical composition.
XRPD samples were analyzed with a Shimadzu XRD-6000 system, using a Cu Kα, 40 kV, 40 mA X-ray tube. The divergence and scatter slits were 1.00 deg, and the receiving slit was 0.30 mm. Samples were continuously scanned at a range of 3.0-45.0 deg, with a step size of 0.04 deg., at a scan rate of 2 deg/min.
After hot filtration the vials were placed in a refrigerator (4° C.) for 16 hours. […] All solids were dried in vacuo at ambient temperature and 30 in. Hg.
After hot filtration the vials were then slowly cooled to room temperature at the rate of 20° C./h and stirred at room temperature for 1-2 hours. All solids were dried in vacuo at ambient temperature and 30 in. Hg.
Solvents for crystallizations were chosen based on the solubility screen summarized below.

[2] = pH 2
Experimental: Solubility concentrations were determined using area-percent calculations with HPLC calibration curves.

[3] = Form conversion and degradation under thermal stress (60° C.)
Experimental: Studies were also conducted to evaluate the likelihood for conversion and degradation under thermal stress.

[4] = Moisture sorption analysis; type: physicochemical
Experimental: Moisture Sorption Analysis was performed with a Hiden IGAsorp Moisture Sorption Instrument, Samples were first dried at 0% relative humidity at 25° C. until an equilibrium weight was reached, or for a maximum of 4 hours. Samples were then subjected to an isothermal (25° C.) scan from 10-90% relative humidity in steps of 10%. The samples were allowed to equilibrate to an asymptotic weight at each point for a maximum of 4 hours. Following absorption, a desorption scan from […] relative humidity (at 25° C.) was run in steps of −10%, again allowing a maximum of 4 hours for the samples to equilibrate. The resulting samples after desorption were dried at 80° C. for two hours and analyzed by XRPD.

[5] = Slurry studies of inter-conversion of the solid form; details: n-heptane, dichloromethane; for inter-conversion of the solid form in slurry: room temperature, 7 and 14 days, toluene (Table 16 Form B: CH2Cl2, THF, t-AmOH)
[6] = mouse, in vivo; for AUC0-6: 50 mg/kg
Experimental: The study used 4 mice dosed per treatment arm. Following, a single intravenous or oral dose, administered by gavage, pharmacokinetic samples were collected at 4 time points: 0.5, 1, 3, and 6 hours post-dosing. Two mice were sampled at each timepoint, with each mouse contributing samples to two timepoints. Each test drug was administered as a 50 mg/kg dose, which yields nearly equal molar concentrations. […] Blood samples were collected into tubes containing dipotassium EDTA as the anticoagulant and placed on ice packs until centrifugation (at 3000 rpm for 10 minutes at 4° C.). After centrifugation, samples were stored at −70° C. until they were thawed for analysis. Circulating drug levels were measured using a precise and reproducible LC-MS/MS assay.

[7] = test system: hypertriglyceridemic patients
Experimental: A clinical study was conducted in 12 hypertriglyceridemic patients. […] After day 8 they were crossed over from one formulation to the other formulation. […] The endpoint of the study was percentage change from baseline to day 15 of triglycerides, total cholesterol, LDL cholesterol, HDL cholesterol and non-HDL cholesterol. Lipid parameters were measured at baseline and on days 7 and 15. Blood pressure was collected at multiple time points.

healthy volunteers [8] = test system: healthy volunteers
Experimental: (§1) A randomized double-blind, placebo-controlled clinical trial was conducted in 24 healthy volunteers. They were randomized in a 2:1 ratio of treated to placebo. […] The dose was administered once per day in the morning for a period of 7 days. A number of lipid parameters were measured at baseline and again on day 7 including fasting triglycerides, total cholesterol, LDL cholesterol, HDL cholesterol, and non-HDL cholesterol. Additionally, blood pressure was measured on a daily basis.

healthy volunteers [9] = test system: healthy volunteers; remark: listed apart in the source
Experimental: as §1
In PK008, the dose was administered as one and one ½ tablet formulation K′.

[10] = test system: hypertriglyceridemic patients; assay: Crossover of formulations U and K′ (435 mg/day diazoxide choline): lipid responses; type: in vivo, human; details: 15 days, 435 mg/day diazoxide choline once daily
Experimental: A clinical study was conducted in 12 hypertriglyceridemic patients. […] Treatment continued for 16 days. The endpoint of the study was percentage change from baseline to day 15 of triglycerides, total cholesterol, LDL cholesterol, HDL cholesterol and non-HDL cholesterol. Lipid parameters were measured at baseline and on days 7 and 15. Blood pressure was collected at multiple time points.

[11] = Excipient compatibility study for diazoxide choline salt; type: physicochemical
[12] = 25° C., listed as Potassium diazoxide salt
[13] = 300 mg diazoxide/day, formulation U
[14] = baseline to day 7, 300 mg diazoxide/day as formulation U
[15] = Study EC004, 435 mg diazoxide choline, 7 days
[16] = Study TR002, 508 mg diazoxide choline, 49 days

SMILES: CC1=NS(=O)(=O)c2cc(Cl)ccc2[N-]1.[K+] [potassium salt of diazoxide]
- Form ([1]; Table 26, slow cooling, Water): Free form
- Form ([1]; Table 30, single solvent, fast-cooling, MeCN): C + D
- solid form after the solubility analysis (XRPD) [2]: changed back to the free form diazoxide
- degradation under thermal stress (HPLC gradient area percent) ([3]; 60° C., 14 days): did not show any significant degradation
- form conversion and degradation under thermal stress (XRPD, DSC) ([3]; 60° C., closed, protected from light, 7 and 14 days): showed unique peaks
- crystalline form after moisture sorption/desorption (XRPD) [4]: changed to an alternate crystalline form
- Moisture Sorption (hygroscopicity) ([4]; 25° C.): hygroscopic
- hydrate formation (hysteresis upon desorption) ([4]; 25° C.): hemihydrate from 0-30% RH and a monohydrate from 35-75% RH
- Moisture Sorption (hygroscopicity) [4, 12]: deliquescent -
- hydrate formation (hysteresis upon desorption) [4, 12]: hemi/monohydrate
- water absorbed ([4]; 60% RH, 25° C.): 5.4 wt %
- water absorbed ([4]; 90% RH, 25° C.): 38.3 wt %
- degradation after slurry study (HPLC gradient area percent) ([5]; toluene, 14 days): did not show any significant degradation
- inter-conversion of the solid form in slurry [5]: no propensity of inter-conversion

SMILES: CC1=Nc2ccc(Cl)cc2S(=O)(=O)[N-]1.C[N+](C)(C)CCO [diazoxide choline]
- Absolute oral bioavailability [6]: 100%
- AUC0-6 ([6]; iv): 137.176 µg·h/mL
- AUC0-6 ([6]; po): 141.26 µg·h/mL
- average drop in standing blood pressure ([7]; 7 days of treatment): ~8 mmHg
- standing diastolic blood pressure ([7]; after 7 days of treatment, baseline 80): 75.5 mmHg
- standing systolic blood pressure ([7]; after 7 days of treatment, baseline 123): 112 mmHg
- supine diastolic blood pressure ([7]; after seven days of treatment, baseline 69): 62.5 mmHg
- supine systolic blood pressure ([7]; after seven days of treatment, baseline 121): 116 mmHg
- average drop in supine blood pressure ([7]; seven days of treatment): ~6 mmHg
- HDL cholesterol, Percent change from base-line (healthy volunteers [8]; 300 mg diazoxide/day, 7 days): 8.2%
- LDL cholesterol, Percent change from base-line (healthy volunteers [8]; 300 mg diazoxide/day, 7 days): −5.4%
- Total cholesterol, Percent change from base-line (healthy volunteers [8]; 300 mg diazoxide/day, 7 days): −2.3%
- Triglycerides, Percent change from base-line (healthy volunteers [8]; 300 mg diazoxide/day, 7 days): −13.2%
- non-HDL cholesterol, Percent change from base-line (healthy volunteers [8]; 300 mg diazoxide/day, 7 days): −6.3%
- HDL cholesterol, Baseline mean ± SEM (healthy volunteers [8]; [13]): 49 ± 3.3 mg/dL
- HDL cholesterol, Day 7 mean ± SEM (healthy volunteers [8]; [13]): 53 ± 2.9 mg/dL
- LDL cholesterol, Baseline mean ± SEM (healthy volunteers [8]; [13]): 111 ± 5.8 mg/dL
- LDL cholesterol, Day 7 mean ± SEM (healthy volunteers [8]; [13]): 105 ± 4.9 mg/dL
- Total cholesterol, Baseline mean ± SEM (healthy volunteers [8]; [13]): 175 ± 7.5 mg/dL
- Total cholesterol, Day 7 mean ± SEM (healthy volunteers [8]; [13]): 171 ± 6.4 mg/dL
- Triglycerides, Baseline mean ± SEM (healthy volunteers [8]; [13]): 76 ± 7.8 mg/dL
- Triglycerides, Day 7 mean ± SEM (healthy volunteers [8]; [13]): 66 ± 3.9 mg/dL
- non-HDL cholesterol, Baseline mean ± SEM (healthy volunteers [8]; [13]): 126 ± 6.6 mg/dL
- non-HDL cholesterol, Day 7 mean ± SEM (healthy volunteers [8]; [13]): 118 ± 5.5 mg/dL
- increase HDL cholesterol (healthy volunteers [8]; [14]): 8.2%
- reduction in total cholesterol, LDL cholesterol and non-HDL cholesterol versus placebo arm (healthy volunteers [8]; [14]): reduction in the diazoxide choline treated arm was greater
- reduction of triglycerides (healthy volunteers [8]; [14]): 13.2%
- solid form after the solubility analysis (XRPD) [2]: changed back to the free form diazoxide
- degradation under thermal stress (HPLC gradient area percent) [3]: did not show any significant degradation
- form conversion and degradation under thermal stress (XRPD, DSC) [3]: consistent with the starting material, as well as the presence of additional unique peaks
- reduction in diastolic blood pressure (healthy volunteers [9]; 7 days, 300 mg diazoxide/day as formulation U, healthy volunteers): 6.2 mmHg
- Diastolic blood pressure, Baseline (healthy volunteers [9]; [15]): 69.4 mmHg
- Diastolic blood pressure, End of treatment (healthy volunteers [9]; [15]): 63.2 mmHg
- Systolic blood pressure, Baseline (healthy volunteers [9]; [15]): 113.2 mmHg
- Systolic blood pressure, End of treatment (healthy volunteers [9]; [15]): 113.5 mmHg
- Diastolic blood pressure, Baseline (healthy volunteers [9]; [16]): 77.7 mmHg
- Diastolic blood pressure, End of treatment (healthy volunteers [9]; [16]): 67.0 mmHg
- Systolic blood pressure, Baseline (healthy volunteers [9]; [16]): 118.1 mmHg
- Systolic blood pressure, End of treatment (healthy volunteers [9]; [16]): 117.0 mmHg
- HDL cholesterol [10]: marked increase
- triglycerides, total cholesterol, LDL cholesterol and nonHDL cholesterol [10]: marked reductions
- hydrate formation (hysteresis upon desorption) ([4]; 25° C.): does not form a stable hydrate
- Moisture Sorption (hygroscopicity) ([4]; 25° C., listed as Choline diazoxide salt): deliquescent -
- Moisture Sorption (hygroscopicity) ([4]; 25° C., listed as choline salt of diazoxide): hygroscopic
- moisture absorbed ([4]; 80% relative humidity, 25° C.): over 28%
- crystalline form after moisture sorption/desorption (XRPD) ([4]; listed as choline salt of diazoxide): changed to an alternate crystalline form
- inter-conversion of the solid form in slurry ([5]; listed as Choline Diazoxide Salt): no propensity of inter-conversion

SMILES: CC1=Nc2ccc(Cl)cc2S(=O)(=O)N1 [Diazoxide Control]
- diazoxide choline salt assayed in mixture with excipient ([11]; 1 Month 40° C./75% RH): 99.0 % (w/w)
- diazoxide choline salt assayed in mixture with excipient ([11]; 1 Month 50° C.): 99.4 % (w/w)
